GI50 and TGI data for twelve compounds are collected here from PubChem BioAssay (NCI).

Structures are written as SMILES. “And” between values parts separate entries of the source, which are not always exact repeats. Equal values may be shown once.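 Following 48 hours of exposure in 96-well plates, responses at five concentrations were used to interpolate endpoints linearly. Abbreviation: GI50, concentration required for 50% inhibition of growth. The concentration for full growth arrest is given as TGI.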

Test systems include A498 renal; HCT-15 colon; HT29 colon; IGROV1 ovarian; OVCAR-3 ovarian; OVCAR-5 ovarian; OVCAR-4 ovarian; SK-MEL-28 melanoma; SNB-19 CNS; TK-10 renal.
Common to all, as to assay: inhibition of tumour cell growth, NCI panel, 48 h

For the compound `NC(N)=N/N=C/c1c(-c2ccc(Cl)c([N+](=O)[O-])c2)nc2ccccn12`, the GI50 with A498 renal is 5.82 µM; with HCT-15 colon it was 9.18 µM; with HT29 colon, 1.42 µM; with IGROV1 ovarian it was 1.36 µM; with OVCAR-3 ovarian, 1.59 µM; in the test with OVCAR-5 ovarian it was 1.73 µM. Moreover, the TGI in the test with A498 renal is 14.4 µM; in the test on HCT-15 colon it was 56.1 µM; with HT29 colon it was over 100 µM; in the test on IGROV1 ovarian, 2.85 µM; with OVCAR-3 ovarian, 3.11 µM; in the test on OVCAR-5 ovarian it was 3.21 µM.

In the case of `COc1cc2c3c(n(CCCNCCNCCCN)c(=O)c2cc1OC)-c1cc2c(cc1C3=O)OCO2`, the GI50 with HCT-15 colon was 2.24 µM; with HT29 colon, 2.03 µM; in the test on IGROV1 ovarian, 1.04 µM; in the test on OVCAR-3 ovarian it was 2.22 µM; with OVCAR-4 ovarian, 4.64 µM; in the test on OVCAR-5 ovarian it was 3.82 µM. Besides, the GI50 with SK-MEL-28 melanoma is 6.6 µM; in the test with SNB-19 CNS, 5.73 µM; in the test on TK-10 renal, 7.92 µM. For the same compound, the TGI turned out to be 20 µM in the test on HCT-15 colon; 10.2 µM in the test with HT29 colon; 7.09 µM in the test on IGROV1 ovarian; 7.63 µM in the test on OVCAR-3 ovarian; 19.9 µM in the test with OVCAR-4 ovarian; 21.4 µM in the test on OVCAR-5 ovarian. For the same compound, the TGI with SK-MEL-28 melanoma worked out at 20.1 µM; with SNB-19 CNS, 31.2 µM; in the test with TK-10 renal, 27 µM.

As for `CCOC(=O)C(=O)Nc1ccc(Cl)c(C(F)(F)F)c1`, the TGI in the test on HCT-15 colon, in the test with HT29 colon, in the test on IGROV1 ovarian, with OVCAR-3 ovarian, in the test with OVCAR-4 ovarian and in the test with OVCAR-5 ovarian was over 100 µM throughout. The TGI in the test with SK-MEL-28 melanoma, in the test with SNB-19 CNS and in the test with TK-10 renal was over 100 µM throughout.

In the case of `COc1ccc2c(c1)CCCC1C3=NCCC3(C)CSC21` (stereo unspecified), the TGI with HT29 colon, in the test with IGROV1 ovarian, in the test on OVCAR-3 ovarian, in the test on OVCAR-4 ovarian, in the test on SK-MEL-28 melanoma and in the test with SNB-19 CNS was over 100 µM throughout. The compound also yielded a TGI in the test on TK-10 renal of over 100 µM.

Take `CCCCCCCCCCCCCCCCn1cc[n+](Cc2ccccc2)c1C`: the GI50 in the test on A498 renal was 1.69 µM and 0.421 µM; in the test with HT29 colon it was 0.297 µM; in the test with IGROV1 ovarian, 1.09 µM; in the test on OVCAR-3 ovarian, 0.178 µM and 0.175 µM; with OVCAR-4 ovarian it was 0.451 µM; in the test on OVCAR-5 ovarian, 1.48 µM. In addition, the GI50 in the test with SK-MEL-28 melanoma was 1.7 µM and 0.246 µM; in the test on SNB-19 CNS it was 0.565 µM; with TK-10 renal, 0.86 µM. The TGI in the test on A498 renal is 3.94 µM and 1.8 µM; in the test with HT29 colon, 1.08 µM; in the test with IGROV1 ovarian it was 2.29 µM; in the test with OVCAR-3 ovarian it was 0.947 µM and 0.49 µM; in the test on OVCAR-4 ovarian, 4.55 µM; in the test on OVCAR-5 ovarian it was 3.25 µM. For the same compound, the TGI was 4.22 µM and 1.35 µM in the test on SK-MEL-28 melanoma; 2.01 µM with SNB-19 CNS; 2.2 µM in the test with TK-10 renal.

With `O=C(O)c1ccc(C2C3C=CC(C3)C2[N+](=O)[O-])cc1` (stereo unspecified), the TGI with A498 renal, with HCT-15 colon, with HT29 colon, in the test on IGROV1 ovarian, with OVCAR-3 ovarian and in the test with SK-MEL-28 melanoma was over 100 µM each time. In addition, the TGI in the test with SNB-19 CNS and in the test with TK-10 renal was over 100 µM throughout.

Turning to `Clc1cc(Cl)cc(Nc2nc3ccccc3nc2-c2cccs2)c1`, the TGI was over 100 µM with HCT-15 colon; 26.9 µM with HT29 colon; 72 µM with OVCAR-3 ovarian; over 100 µM in the test on OVCAR-5 ovarian; 75.6 µM in the test with TK-10 renal.

On to `OCc1ccc(Oc2c3ccccc3nc3occc23)cc1`, for which the GI50 with HCT-15 colon is 19.4 µM; with HT29 colon, 28.6 µM; in the test with IGROV1 ovarian, 45.6 µM; in the test with OVCAR-3 ovarian it was 22.1 µM; with OVCAR-4 ovarian, 37.9 µM; in the test with OVCAR-5 ovarian, 29.5 µM. Further, the results for the GI50 in the test on SK-MEL-28 melanoma, in the test on SNB-19 CNS and in the test with TK-10 renal were 41.4 µM, 39.8 µM and 18.1 µM, respectively. Also, the TGI with HCT-15 colon was 47.3 µM; in the test on HT29 colon, over 100 µM; with IGROV1 ovarian, over 100 µM; with OVCAR-3 ovarian it was 39.7 µM; in the test with OVCAR-4 ovarian, over 100 µM; with OVCAR-5 ovarian, over 100 µM. For the same compound, the TGI was over 100 µM in the test with SK-MEL-28 melanoma, over 100 µM in the test with SNB-19 CNS and 46.8 µM in the test on TK-10 renal.

As to `COc1ccc(-c2csc3c2-n2cccc2C3=O)cc1O`, the GI50 in the test with A498 renal was 1.13 µM; in the test with HCT-15 colon it was under 0.0132 µM; in the test with HT29 colon it was 3.68 µM; with IGROV1 ovarian, 0.824 µM; in the test with OVCAR-3 ovarian, under 0.0152 µM; in the test on OVCAR-4 ovarian it was 0.579 µM. In addition, the GI50 in the test with OVCAR-5 ovarian was 1.5 µM; in the test with SNB-19 CNS, 3.44 µM; in the test on TK-10 renal, 17.6 µM. For the same compound, the TGI in the test on A498 renal is 13.5 µM; in the test with HCT-15 colon, over 100 µM; with HT29 colon, over 78.1 µM; in the test with IGROV1 ovarian it was over 47.3 µM; in the test on OVCAR-3 ovarian it was 0.0434 µM; in the test with OVCAR-4 ovarian, over 100 µM. The TGI in the test with OVCAR-5 ovarian was over 100 µM; in the test with SNB-19 CNS, over 100 µM; in the test on TK-10 renal, 98.7 µM.

With `CCOC(=O)[C@H]1Nc2ccc(Cl)cc2[C@H]2c3ccccc3O[C@H]21`, the TGI in the test on HCT-15 colon, in the test with HT29 colon, in the test with IGROV1 ovarian, in the test with OVCAR-3 ovarian, in the test with OVCAR-4 ovarian and in the test with OVCAR-5 ovarian was over 100 µM throughout. Also, the TGI in the test on SK-MEL-28 melanoma, with SNB-19 CNS and with TK-10 renal was over 100 µM throughout.

Regarding `C=C1C(=O)O[C@H]2C[C@@H]1CCC1(C)OC1CC/C(C)=C/CC[C@H]2C` (stereo partly specified), the GI50 was 17.7 µM in the test on A498 renal; 17.3 µM in the test with HCT-15 colon; 20.1 µM with HT29 colon; 35 µM in the test on IGROV1 ovarian; 19.1 µM with OVCAR-3 ovarian; 15.9 µM with OVCAR-5 ovarian. For the same compound, the GI50 with SNB-19 CNS was 16 µM; with TK-10 renal, 17.6 µM. In addition, the TGI in the test on A498 renal is 33.6 µM; in the test on HCT-15 colon it was 31.1 µM; in the test with HT29 colon, 34.3 µM; in the test on IGROV1 ovarian, 96.8 µM; in the test with OVCAR-3 ovarian it was 35.1 µM; in the test on OVCAR-5 ovarian it was 30 µM. Besides, the figures for the TGI in the test on SNB-19 CNS and with TK-10 renal were 32.9 µM and 31.8 µM, respectively.

Consider `Cn1c(=O)oc2cc(C3CCC(=O)N3Cc3ccc(Cl)cc3)ccc21` (stereo unspecified), for which the TGI with HCT-15 colon, with HT29 colon, with IGROV1 ovarian, in the test with OVCAR-4 ovarian, in the test on OVCAR-5 ovarian and with SK-MEL-28 melanoma was over 100 µM each time. Also, the TGI in the test with SNB-19 CNS and with TK-10 renal was over 100 µM throughout.
